{"source": "paper PMC11416940", "about": "“Identification and characterization of a small molecule BFstatin inhibiting BrpR, the transcriptional regulator for biofilm formation of Vibrio vulnificus” (Frontiers in Microbiology, 2024)", "biological_target": "T1, BrpR", "T1 construct": "His6-tagged BrpR (brpR gene on pET-28a(+), expressed in E. coli BL21 (DE3))", "assay": "microscale thermophoresis (MST) with labeled purified His6-BrpR; supported by EMSA inhibition of promoter DNA binding", "design": "species or system Vibrio vulnificus", "data": [{"smiles": "CCCNC(=O)CC(=O)Nc1cc(F)ccc1Cl", "note": "[175C05, N1-(2-chloro-5-fluorophenyl)-N3-propylmalonamide]", "values": [{"measurement": "Kd", "value": 7.14, "unit": "µM"}]}]}
